Test results published in article PMC10025480 (Frontiers in Pharmacology, 2023).
Where two headings read alike, the source gives them in different places.

Key:
HBE cells = test: Goblet cell formation (MUC5AC+ and acetylated α-tubulin+ stained area) in HBE; type: cell-based, human; settings: for acetylated α-tubulin (ciliated) stained area / MUC5AC+ stained area (goblet cells): 96 h; for MUC5AC+ stained area (goblet cells): IL-13 naïve and IL-13 treated cultures
Procedure: HBE cultured at air-liquid interface for 14–21 days were treated with TMEM16A blockers ± IL-13 (10 ng/mL; basolateral) for 96 h to establish any effects on goblet cell numbers. At 48h, LDH levels in the media were measured according to the manufacturer’s instructions (Roche Cytotoxicity Detection Kit #11644793001), and blockers, IL-13 and media were refreshed. At 96 h, wells were fixed in 4% formaldehyde and were stained with antibodies to MUC5AC (45M1; Thermo Fisher, United Kingdom) and acetylated α-tubulin (6-11B-1; Sigma, United Kingdom) as previously described ([Danahay et al., 2015]; [Danahay et al., 2020b]) with secondary antibodies to enable fluorescence detection of both proteins (Alexa Fluor; Thermo Fisher, United Kingdom). The MUC5AC^+ stained area was visualised using a Zeiss Axiovert epifluorescence microscope with a motorised stage that was used to image the same 9 regions of interest on each insert. ImageJ was used to quantify the MUC5AC^+ and stained area per insert which was normalised to the vehicle control group. The process was repeated for the acetylated α-tubulin^+ stained area.

[1] = test system: panel of 22 functional GPCR assays; test: SelectScreen cell-based GPCR assay panel; settings: 10 µM
Text: Profiling of compound activity versus a select panel of diverse GPCRs was undertaken by ThermoFisher Scientific (United Kingdom) via their SelectScreen cell-based GPCR assay panel. Detailed experimental protocols on this assay platform can be found at (https://www.thermofisher.com/content/dam/LifeTech/migration/en/filelibrary/services/discovery-research/pdfs.par.36410.file.dat/sscg-brochure.pdf). Briefly these assays detect agonist or antagonist activity using cell lines with the GPCR of interest over-expressed, driving the expression of a reporter gene encompassing a mammalian-optimized Beta-lactamase. Test compounds are incubated with the specific cell lines at the defined final concentration for 5 or 16 h (depending on the cell line specifics) before quantification of effect.

CF-HBE cells [2] = test: Short-circuit current (ISC), IL-13 pre-treated CF-HBE; type: cell-based, human
Procedure: (§1) HBE cultured at air-liquid interface (ALI) for 14–21 days were mounted in Ussing chambers in symmetrical Ringers solution containing (in mM): 120 NaCl, 25 NaHCO3, 3.3 KH2PO4, 0.8 K2HPO4, 1.2 CaCl2, 1.2 MgCl2, and 10 glucose, and voltage clamped as described above. In some studies, HBE were pre-treated with IL-13 (10 ng/mL; Peprotech, United Kingdom) for 48 h to increase TMEM16A expression levels ([Caputo et al., 2008]). Amiloride (10 μM; apical) was used to block the spontaneous, ENaC-mediated current, whilst UTP (10 μM; apical) and forskolin (10 μM; apical and basolateral) were added to the bath solutions to activate Ca^2+ and cAMP-dependent anion secretory responses, respectively. Inh172 (30 μM; apical and basolateral) was also used to inhibit CFTR function. The TMEM16A blockers were added to the apical side of the Ussing chambers to evaluate effects on each of these currents.

CF-HBE cells [3] = test: Intracellular Ca2+ measurement (Calcium6), IL-13 pre-treated CF-HBE at ALI; type: cell-based, human; settings: for direct effect on baseline [Ca2+]i: apical addition; for UTP-stimulated elevation of [Ca2+]i: pre-treatment
Procedure: (§2) CF-HBE cultured at air-liquid interface for 14–21 days were pre-treated with IL-13 (10 ng/mL; 48 h). CF-HBE were then loaded with the Ca^2+-sensitive fluorescent reporter dye, Calcium6 for 120 min at 37°C in Hanks balanced salt solution (HBSS) buffered with 20 mM HEPES (pH 7.4). […] The direct effects of apically administered TMEM16A blockers on [Ca^2+]i as well as effects on the subsequent responses to UTP were measured using a PHERAstar plate reader (BMG Lab Tech, United Kingdom). Equivalent measurements were performed in FRT-TMEM16Aabc cells that had been cultured in 96 well, clear bottom plastic plates and loaded with Calcium6 using the same protocol.

hTMEM16Aabc = molecular target: T1, hTMEM16Aabc (Homo sapiens, UniProt Q5XXA6, DEL476-501); test: Whole-cell patch clamp (QPatch), FRT-hTMEM16Aabc cells; type: cell-based; settings: for IC50: [Ca2+]i clamped at 415 nM
T1 construct: expressed in transfected cells
T1 sequence (Q5XXA6 with tags, fused parts or gaps isoform Q5XXA6-5 DEL539-564): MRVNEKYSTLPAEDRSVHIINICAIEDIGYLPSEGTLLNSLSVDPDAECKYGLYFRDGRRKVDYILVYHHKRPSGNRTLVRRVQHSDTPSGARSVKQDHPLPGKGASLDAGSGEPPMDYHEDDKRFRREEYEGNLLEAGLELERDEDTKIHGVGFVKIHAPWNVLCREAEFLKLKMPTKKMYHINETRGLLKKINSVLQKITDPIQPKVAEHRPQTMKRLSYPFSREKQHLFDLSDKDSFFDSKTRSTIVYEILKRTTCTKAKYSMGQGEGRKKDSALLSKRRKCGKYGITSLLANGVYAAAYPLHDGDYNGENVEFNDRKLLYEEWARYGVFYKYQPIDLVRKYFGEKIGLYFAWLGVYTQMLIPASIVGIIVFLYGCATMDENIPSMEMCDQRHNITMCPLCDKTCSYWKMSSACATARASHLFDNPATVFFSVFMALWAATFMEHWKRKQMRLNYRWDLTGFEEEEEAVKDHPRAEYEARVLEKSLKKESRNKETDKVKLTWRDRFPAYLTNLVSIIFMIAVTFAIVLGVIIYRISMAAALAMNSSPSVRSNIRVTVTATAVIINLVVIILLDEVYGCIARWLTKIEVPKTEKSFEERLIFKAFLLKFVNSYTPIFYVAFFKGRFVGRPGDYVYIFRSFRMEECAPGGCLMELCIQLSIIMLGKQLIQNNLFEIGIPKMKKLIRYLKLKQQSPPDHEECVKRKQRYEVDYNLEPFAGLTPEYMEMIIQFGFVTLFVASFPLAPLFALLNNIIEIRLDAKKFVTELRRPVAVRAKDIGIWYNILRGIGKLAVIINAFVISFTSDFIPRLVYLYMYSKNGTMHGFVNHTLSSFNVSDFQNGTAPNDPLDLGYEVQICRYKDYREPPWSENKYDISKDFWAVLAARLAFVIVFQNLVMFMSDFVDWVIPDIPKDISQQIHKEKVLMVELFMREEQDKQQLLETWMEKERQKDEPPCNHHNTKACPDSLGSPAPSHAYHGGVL
Procedure: Current rectification ratios were calculated by dividing the magnitude of the outward current at +90 mV by the magnitude of the inward current at −90 mV.

FRT-TMEM16Aabc cells = test: Intracellular Ca2+ measurement (Calcium6), FRT-TMEM16Aabc cells; type: cell-based; settings: 10 min pre-treatment
Procedure: as §2

HBE cells (non-CF) = test: Short-circuit current (ISC) and transepithelial resistance, non-CF HBE; type: cell-based, human; settings: for Inh172-sensitive ISC / amiloride-sensitive current / magnitude of response to amiloride / forskolin-stimulated current: after compound treatment; for change in transepithelial resistance: vehicle +108 ± 14
Procedure: as §1

[4] = after amiloride, 5 min pre-treatment

change in transepithelial resistance (HBE cells (non-CF))	SMILES	acetylated α-tubulin (ciliated) stained area (HBE cells)	MUC5AC+ stained area (goblet cells) (HBE cells)	number of GPCRs inhibited by ≥ 50% [1]	UTP-stimulated peak increase in ISC (CF-HBE cells [2]; [4])	direct effect on baseline [Ca2+]i (CF-HBE cells [3])	UTP-stimulated elevation of [Ca2+]i (CF-HBE cells [3])	UTP-stimulated increase in [Ca2+]i (FRT-TMEM16Aabc cells)	Inh172-sensitive ISC (HBE cells (non-CF))	amiloride-sensitive current / magnitude of response to amiloride (HBE cells (non-CF))	forskolin-stimulated current (HBE cells (non-CF))	other results
+170 ± 25 Ω cm^2	CCc1oc2ccccc2c1C(=O)c1cc(Br)c(O)c(Br)c1 [benzbromarone]	significantly attenuated	significantly attenuated	6	attenuated	immediate and transient increase	attenuated	significantly attenuated	attenuated	attenuated	attenuated	direct effect on amiloride-insensitive baseline ISC (CF-HBE cells [2]): Neither Ani9 nor benzbromarone had any direct effect; UTP-stimulated ISC AUC (CF-HBE cells [2]; [4]): attenuated; IC50 (hTMEM16Aabc; IC50 (printed in Figure 1, concentration-response curves), hTMEM16Aabc currents in FRT cells): 3.05 ± 0.586 µM; IC50 (hTMEM16Aabc; IC50, inhibition of TMEM16Aabc currents, assessed at +90 mV, FRT cells): 3 ± 0.6 µM; IC50 (hTMEM16Aabc; at −90 mV, FRT cells, read-out: IC50, inhibition of TMEM16Aabc currents): 1.3 ± 0.3 µM; inhibition at 30 µM (hTMEM16Aabc; highest concentration tested, 30 µM, [Ca2+]i 415 nM, read-out: inhibition of TMEM16Aabc current): 96%; decline in the baseline ISC (HBE cells (non-CF); apical): 50%
−174 ± 19 Ω cm^2	O=C(Nc1ccc([N+](=O)[O-])cc1Cl)c1cc(Cl)ccc1O [niclosamide]	significantly attenuated	significantly attenuated	11	attenuated	immediate and transient increase	attenuated	significantly attenuated	attenuated	attenuated	attenuated	air-liquid interface integrity (HBE cells; by 48 h after initiating treatment, media on mucosal surface): compromised; immediate, transient increase in ISC (CF-HBE cells [2]; 10 µM, vehicle 0.5 ± 0.2): 6.8 ± 1.0 µAcm^-2; change to lower baseline ISC than before compound addition (CF-HBE cells [2]; 10 µM, vehicle −0.3 ± 0.1): −0.9 ± 0.2 µAcm^-2; current reversal potential (hTMEM16Aabc; 30 µM, vehicle −12.3 ± 2.0 mV): −29.8 ± 1.3 mV; effect on TMEM16Aabc currents (hTMEM16Aabc; bell-shaped response, [Ca2+]i 415 nM): potentiation of currents at concentrations up to 1.1 µM; reduction in the baseline ISC (HBE cells (non-CF); 10 µM, within 30 min of addition): ~90%
